Assay results taken from publication PMC5218480 (PLoS ONE, 2017).

Test system: MV-4-11 cells
Experiment: Gene expression microarray analysis (Affymetrix PrimeView) and GSEA
Format: cell-based, human
Set-up: RFU PODN (11730768_x_at) / Fold change /veh PODN (11730768_x_at) / RFU LINC00158 (11744669_a_at) / Fold change /veh LINC00158 (11744669_a_at) / RFU DUSP10 (11751237_a_at) / Fold change /veh DUSP10 (11751237_a_at) / RFU ID3 (11757404_x_at) / Fold change /veh ID3 (11757404_x_at) / RFU PLEKHG5 (11737974_s_at) / Fold change /veh PLEKHG5 (11737974_s_at) / RFU LRRC4B (11730491_at) / Fold change /veh LRRC4B (11730491_at) / RFU GIMAP4 (11747438_a_at) / Fold change /veh GIMAP4 (11747438_a_at) / RFU KRT8 (11758183_x_at) / Fold change /veh KRT8 (11758183_x_at) / RFU CNN1 (11734310_a_at) / Fold change /veh CNN1 (11734310_a_at) / RFU VPS37D (11726825_at) / Fold change /veh VPS37D (11726825_at) / RFU C10orf10 (11716522_x_at) / Fold change /veh C10orf10 (11716522_x_at) / RFU KIR2DL2 /// KIR2DL4 /// KIR2DL5A /// KIR2DL5B /// KIR2DS1 /// KIR2DS2 /// KIR2DS3 /// KIR2DS4 /// KIR3DL3 /// KIR3DL3 /// KIR3DS1 (11738374_at) / Fold change /veh KIR2DL2 /// KIR2DL4 /// KIR2DL5A /// KIR2DL5B /// KIR2DS1 /// KIR2DS2 /// KIR2DS3 /// KIR2DS4 /// KIR3DL3 /// KIR3DL3 /// KIR3DS1 (11738374_at) / RFU C1QL1 (11718748_at) / Fold change /veh C1QL1 (11718748_at) / RFU TMPRSS4 (11747572_a_at) / Fold change /veh TMPRSS4 (11747572_a_at) / RFU HAMP (11756126_x_at) / Fold change /veh HAMP (11756126_x_at) / RFU RNFT2 (11725882_a_at) / Fold change /veh RNFT2 (11725882_a_at) / RFU NR4A2 (11747474_a_at) / Fold change /veh NR4A2 (11747474_a_at) / RFU ABCC12 (11746883_a_at) / Fold change /veh ABCC12 (11746883_a_at) / RFU TMEM136 (11760407_x_at) / Fold change /veh TMEM136 (11760407_x_at) / RFU CLDN22 /// WWC2 (11732394_at) / Fold change /veh CLDN22 /// WWC2 (11732394_at) / RFU HLA-DPB1 (11760878_x_at) / Fold change /veh HLA-DPB1 (11760878_x_at) / RFU SPINT1 (11716480_a_at) / Fold change /veh SPINT1 (11716480_a_at) / RFU GAP43 (11754022_s_at) / Fold change /veh GAP43 (11754022_s_at) / RFU A4GNT (11735810_at) / Fold change /veh A4GNT (11735810_at) / RFU PRB3 (11715151_x_at) / Fold change /veh PRB3 (11715151_x_at) / RFU TUBB4B (11761932_at) / Fold change /veh TUBB4B (11761932_at) / RFU CAPN14 (11732068_a_at) / Fold change /veh CAPN14 (11732068_a_at) / RFU TMCC2 (11721928_a_at) / Fold change /veh TMCC2 (11721928_a_at) / RFU IRGQ (11745062_a_at) / Fold change /veh IRGQ (11745062_a_at) / RFU FAM174B (11720279_a_at) / Fold change /veh FAM174B (11720279_a_at) / RFU TMPRSS4 (11748680_a_at) / Fold change /veh TMPRSS4 (11748680_a_at) / RFU FAM212B (11763350_a_at) / Fold change /veh FAM212B (11763350_a_at) / RFU PLEKHG5 (11743358_a_at) / Fold change /veh PLEKHG5 (11743358_a_at) / RFU ZSCAN30 (11745921_a_at) / Fold change /veh ZSCAN30 (11745921_a_at) / RFU CMKLR1 (11741424_a_at) / Fold change /veh CMKLR1 (11741424_a_at) / RFU LOC101060620 /// MAPK8IP1 (11723275_at) / Fold change /veh LOC101060620 /// MAPK8IP1 (11723275_at) / RFU SPTSSB (11747773_x_at) / Fold change /veh SPTSSB (11747773_x_at) / RFU PRSS12 (11739890_at) / Fold change /veh PRSS12 (11739890_at) / RFU BIN1 (11741810_x_at) / Fold change /veh BIN1 (11741810_x_at) / RFU WNT11 (11732464_a_at) / Fold change /veh WNT11 (11732464_a_at) / RFU C10orf10 (11716521_a_at) / Fold change /veh C10orf10 (11716521_a_at) / RFU C5orf56 (11738089_at) / Fold change /veh C5orf56 (11738089_at) / RFU CYB561 (11721691_x_at) / Fold change /veh CYB561 (11721691_x_at) / RFU ANKRD19P (11752326_a_at) / Fold change /veh ANKRD19P (11752326_a_at) / RFU OR2T12 /// OR2T33 /// OR2T8 (11738714_s_at) / Fold change /veh OR2T12 /// OR2T33 /// OR2T8 (11738714_s_at) / RFU VCAN (11748164_a_at) / Fold change /veh VCAN (11748164_a_at) / RFU JSRP1 (11732532_at) / Fold change /veh JSRP1 (11732532_at) / RFU KRTAP10-11 (11738290_x_at) / Fold change /veh KRTAP10-11 (11738290_x_at) / RFU MYO3A (11730013_a_at) / Fold change /veh MYO3A (11730013_a_at) / RFU EBF3 (11725865_a_at) / Fold change /veh EBF3 (11725865_a_at) / RFU CAMK2N1 (11719241_x_at) / Fold change /veh CAMK2N1 (11719241_x_at) / RFU C5orf56 (11738088_a_at) / Fold change /veh C5orf56 (11738088_a_at) / RFU OLFML3 (11715873_a_at) / Fold change /veh OLFML3 (11715873_a_at) / RFU LOC100653217 /// NTM (11731650_a_at) / Fold change /veh LOC100653217 /// NTM (11731650_a_at) / RFU MAPK11 (11762145_a_at) / Fold change /veh MAPK11 (11762145_a_at) / RFU FIZ1 (11724087_x_at) / Fold change /veh FIZ1 (11724087_x_at) / RFU OASL (11726364_x_at) / Fold change /veh OASL (11726364_x_at) / RFU SOX15 (11748057_x_at) / Fold change /veh SOX15 (11748057_x_at) / RFU CD79A (11719716_a_at) / Fold change /veh CD79A (11719716_a_at) / RFU HIST1H1D (11736915_at) / Fold change /veh HIST1H1D (11736915_at) / RFU CASKIN2 (11723855_a_at) / Fold change /veh CASKIN2 (11723855_a_at) / RFU LOC730098 (11760151_x_at) / Fold change /veh LOC730098 (11760151_x_at) / RFU OR4N2 (11742367_at) / Fold change /veh OR4N2 (11742367_at) / RFU PRRT2 (11749266_a_at) / Fold change /veh PRRT2 (11749266_a_at) / RFU SNX32 (11753110_a_at) / Fold change /veh SNX32 (11753110_a_at) / RFU CDHR5 (11726645_a_at) / Fold change /veh CDHR5 (11726645_a_at) / RFU RCAN1 (11760418_a_at) / Fold change /veh RCAN1 (11760418_a_at) / RFU FAM167A (11723789_a_at) / Fold change /veh FAM167A (11723789_a_at) / RFU FAM26E (11764081_at) / Fold change /veh FAM26E (11764081_at) / RFU ISYNA1 (11749810_s_at) / Fold change /veh ISYNA1 (11749810_s_at) / RFU ACY1 (11761880_at) / Fold change /veh ACY1 (11761880_at) / RFU 11764098_at / Fold change /veh 11764098_at / RFU SAMD14 (11745864_x_at) / Fold change /veh SAMD14 (11745864_x_at) / RFU NPB (11741838_a_at) / Fold change /veh NPB (11741838_a_at) / RFU TMPRSS6 (11731388_a_at) / Fold change /veh TMPRSS6 (11731388_a_at) / RFU KRTAP10-2 (11738614_at) / Fold change /veh KRTAP10-2 (11738614_at) / RFU ARHGAP8 /// PRR5-ARHGAP8 (11727945_x_at) / Fold change /veh ARHGAP8 /// PRR5-ARHGAP8 (11727945_x_at) / RFU KRTAP5-7 /// NADSYN1 (11734609_at) / Fold change /veh KRTAP5-7 /// NADSYN1 (11734609_at) / RFU RASL12 (11751679_a_at) / Fold change /veh RASL12 (11751679_a_at) / RFU CDKN2B (11736163_a_at) / Fold change /veh CDKN2B (11736163_a_at) / RFU PRF1 (11729649_at) / Fold change /veh PRF1 (11729649_at) / RFU, ZNF638 /// ZNF638-IT1 / Fold change vs veh, ZNF638 /// ZNF638-IT1 / RFU, PANK3 / Fold change vs veh, PANK3 / RFU, SH3YL1 / Fold change vs veh, SH3YL1 / RFU, ZEB2 / Fold change vs veh, ZEB2 / RFU, NRIP1 / Fold change vs veh, NRIP1 / RFU, PTTG1IP / Fold change vs veh, PTTG1IP / RFU, CAPN2 / Fold change vs veh, CAPN2 / RFU, MED14 / Fold change vs veh, MED14 / RFU, SNORA58 / Fold change vs veh, SNORA58 / RFU, C1orf63 / Fold change vs veh, C1orf63 / RFU, LRRFIP1 / Fold change vs veh, LRRFIP1 / RFU, NDUFAF7 / Fold change vs veh, NDUFAF7 / RFU, SLC12A2 / Fold change vs veh, SLC12A2 / RFU, IBTK / Fold change vs veh, IBTK / RFU, ESF1 / Fold change vs veh, ESF1 / Fold change vs veh, TMEM50B / RFU, TAOK1 / Fold change vs veh, TAOK1 / RFU, ACBD3 / Fold change vs veh, ACBD3 / RFU, TMA16 / Fold change vs veh, TMA16 / RFU, RWDD3 / Fold change vs veh, RWDD3 / RFU, BCAT1 / Fold change vs veh, BCAT1 / RFU, EDEM3 / Fold change vs veh, EDEM3 / RFU, TMEM33 / Fold change vs veh, TMEM33 / RFU, WDR75 / Fold change vs veh, WDR75 / RFU, AHCTF1 / Fold change vs veh, AHCTF1 / RFU, TFRC / Fold change vs veh, TFRC / RFU, ZDHHC17 / Fold change vs veh, ZDHHC17 / RFU, NOM1 / Fold change vs veh, NOM1 / RFU, ARL8B / Fold change vs veh, ARL8B / RFU, ZBTB11 / Fold change vs veh, ZBTB11 / RFU, TAMM41 / Fold change vs veh, TAMM41 / RFU, KIAA1704 /// LOC100996395 / Fold change vs veh, KIAA1704 /// LOC100996395 / RFU, ING1 / Fold change vs veh, ING1 / RFU, TRMT61B / Fold change vs veh, TRMT61B / RFU, FUBP3 / Fold change vs veh, FUBP3 / RFU, TP53 / Fold change vs veh, TP53 / RFU, TNKS2 / Fold change vs veh, TNKS2 / RFU, ZFP14 / Fold change vs veh, ZFP14 / RFU, ACTR2 / Fold change vs veh, ACTR2 / RFU, PPP3R1 / Fold change vs veh, PPP3R1 / RFU, PIK3R1 / Fold change vs veh, PIK3R1 / RFU, HNRNPA1 / Fold change vs veh, HNRNPA1 / RFU, RNF170 / Fold change vs veh, RNF170 / RFU, ZNF28 / Fold change vs veh, ZNF28 / RFU, RNGTT / Fold change vs veh, RNGTT / RFU, OGT / Fold change vs veh, OGT / RFU, BRD1 / Fold change vs veh, BRD1 / RFU, MARS / Fold change vs veh, MARS / RFU, ZNF655 / Fold change vs veh, ZNF655 / RFU, FAHD1 / Fold change vs veh, FAHD1 / RFU, BDP1 / Fold change vs veh, BDP1 / RFU, LRRCC1 / Fold change vs veh, LRRCC1 / RFU, ARID1A / Fold change vs veh, ARID1A / RFU, ZNF146 / Fold change vs veh, ZNF146 / RFU, ZNF330 / Fold change vs veh, ZNF330 / RFU, GPN3 / Fold change vs veh, GPN3 / RFU, C9orf123 / Fold change vs veh, C9orf123 / RFU, N4BP2L2 / Fold change vs veh, N4BP2L2 / RFU, ARFIP1 / Fold change vs veh, ARFIP1 / RFU, FAM179B / Fold change vs veh, FAM179B / RFU, BCL10 / Fold change vs veh, BCL10 / RFU, UHRF1BP1L / Fold change vs veh, UHRF1BP1L / RFU, BET1 / Fold change vs veh, BET1 / RFU, CNOT2 / Fold change vs veh, CNOT2 / RFU, ZNF268 / Fold change vs veh, ZNF268 / Fold change vs veh, ZNF507 / RFU, DGCR2 / Fold change vs veh, DGCR2 / RFU, WDSUB1 / Fold change vs veh, WDSUB1 / Fold change vs veh, HSP90B1 /// MIR3652 / RFU, ADSS / Fold change vs veh, ADSS / RFU, GK / Fold change vs veh, GK / RFU, ZNF148 / Fold change vs veh, ZNF148 / RFU, TAF9 / Fold change vs veh, TAF9 / RFU, SLC1A5 / Fold change vs veh, SLC1A5 / RFU, SLMO2 / Fold change vs veh, SLMO2 / RFU, ABCC4 / Fold change vs veh, ABCC4 / RFU, LOC101060439 /// RAP1B / Fold change vs veh, LOC101060439 /// RAP1B / RFU, RFX7 / Fold change vs veh, RFX7 / RFU, GTPBP10 / Fold change vs veh, GTPBP10 / RFU, CNEP1R1 / Fold change vs veh, CNEP1R1 / RFU, BIVM-ERCC5 /// ERCC5 / Fold change vs veh, BIVM-ERCC5 /// ERCC5 / RFU, ILF3 / Fold change vs veh, ILF3 / RFU 11762660_at / Fold change /veh 11762660_at / RFU VCAN (11757783_s_at) / Fold change /veh VCAN (11757783_s_at) / RFU DDX43 (11728927_at) / Fold change /veh DDX43 (11728927_at) / RFU KRT8 (11758188_x_at) / Fold change /veh KRT8 (11758188_x_at) / RFU NKD1 (11759106_at) / Fold change /veh NKD1 (11759106_at) / RFU SRD5A1 (11742802_a_at) / Fold change /veh SRD5A1 (11742802_a_at) / RFU TPSAB1 /// TPSB2 (11721975_s_at) / Fold change /veh TPSAB1 /// TPSB2 (11721975_s_at) / RFU GSTM3 (11746129_a_at) / Fold change /veh GSTM3 (11746129_a_at) / RFU IL23R (11737362_x_at) / Fold change /veh IL23R (11737362_x_at) / RFU TMEM51 (11727254_a_at) / Fold change /veh TMEM51 (11727254_a_at) / RFU PIWIL2 (11732686_x_at) / Fold change /veh PIWIL2 (11732686_x_at) / RFU ORM1 (11744905_x_at) / Fold change /veh ORM1 (11744905_x_at) / RFU CCDC152 (11743942_at) / Fold change /veh CCDC152 (11743942_at) / RFU ECM1 (11717891_a_at) / Fold change /veh ECM1 (11717891_a_at) / RFU IL23R (11748794_a_at) / Fold change /veh IL23R (11748794_a_at) / RFU TNFAIP8L3 (11732012_x_at) / Fold change /veh TNFAIP8L3 (11732012_x_at) / RFU MBOAT4 (11741988_at) / Fold change /veh MBOAT4 (11741988_at) / RFU 11764193_at / Fold change /veh 11764193_at / RFU TMEM53 (11763286_at) / Fold change /veh TMEM53 (11763286_at) / RFU MAGEB2 (11727129_at) / Fold change /veh MAGEB2 (11727129_at) / RFU TMEM200A (11744735_a_at) / Fold change /veh TMEM200A (11744735_a_at) / RFU CCDC152 (11751479_a_at) / Fold change /veh CCDC152 (11751479_a_at) / RFU FAM211A (11726209_a_at) / Fold change /veh FAM211A (11726209_a_at) / RFU RGS16 (11746705_a_at) / Fold change /veh RGS16 (11746705_a_at) / RFU VCAN (11755009_s_at) / Fold change /veh VCAN (11755009_s_at) / RFU RHOB (11743442_s_at) / Fold change /veh RHOB (11743442_s_at) / RFU RGS16 (11720943_a_at) / Fold change /veh RGS16 (11720943_a_at) / RFU RGS16 (11720944_at) / Fold change /veh RGS16 (11720944_at) / RFU, VPS4B / Fold change vs veh, VPS4B / RFU, CREB1 / Fold change vs veh, CREB1 / RFU, DNAJC13 / Fold change vs veh, DNAJC13 / RFU, GNAQ / Fold change vs veh, GNAQ / RFU, CDK5R1 / Fold change vs veh, CDK5R1 / RFU, ZRANB3 / Fold change vs veh, ZRANB3 / RFU, CUL4A / Fold change vs veh, CUL4A / RFU, CCNY / Fold change vs veh, CCNY / RFU, UFL1 / Fold change vs veh, UFL1 / RFU, COG3 / Fold change vs veh, COG3 / RFU, DIAPH2 / Fold change vs veh, DIAPH2 / RFU, SKA2 / Fold change vs veh, SKA2 / RFU, AFF3 / Fold change vs veh, AFF3 / RFU, LMF1 / Fold change vs veh, LMF1 / RFU, IPO11 / Fold change vs veh, IPO11 / RFU, DFFB / Fold change vs veh, DFFB / RFU, FOXP1 / Fold change vs veh, FOXP1 / RFU, CARD8 / Fold change vs veh, CARD8 / RFU, STRN3 / Fold change vs veh, STRN3 / RFU, ADK / Fold change vs veh, ADK / RFU, RASSF2 / Fold change vs veh, RASSF2 / RFU, WIPF1 / Fold change vs veh, WIPF1 / RFU, LARP1B / Fold change vs veh, LARP1B / RFU, RASA1 / Fold change vs veh, RASA1 / RFU, RB1 / Fold change vs veh, RB1 / RFU, PPFIA1 / Fold change vs veh, PPFIA1 / RFU, MAT2A / Fold change vs veh, MAT2A / RFU, CCT5 / Fold change vs veh, CCT5 / RFU, WDR92 / Fold change vs veh, WDR92 / RFU, CUX1 / Fold change vs veh, CUX1 / RFU, TTC7A / Fold change vs veh, TTC7A / RFU, TMEM135 / Fold change vs veh, TMEM135 / RFU, DEPTOR / Fold change vs veh, DEPTOR / RFU, CPM / Fold change vs veh, CPM / RFU, DNAJB6 / Fold change vs veh, DNAJB6 / RFU, CACNA2D3 / Fold change vs veh, CACNA2D3 / RFU, DTX4 / Fold change vs veh, DTX4 / RFU, TFCP2 / Fold change vs veh, TFCP2 / RFU, GMCL1 /// GMCL1P1 / Fold change vs veh, GMCL1 /// GMCL1P1 / RFU, AEBP2 / Fold change vs veh, AEBP2 / RFU, SNHG1 /// SNORD22 /// SNORD25 /// SNORD26 /// SNORD27 /// SNORD28 /// SNORD29 /// SNORD31 / Fold change vs veh, SNHG1 /// SNORD22 /// SNORD25 /// SNORD26 /// SNORD27 /// SNORD28 /// SNORD29 /// SNORD31 / Fold change (Aza/veh), C12orf56 (ProbeSet 11735607_a_at) / Fold change (ACY-1035/veh), C12orf56 (ProbeSet 11735607_a_at) / Fold change (Aza/veh), FGFR1OP (ProbeSet 11751329_s_at) / Fold change (ACY-1035/veh), FGFR1OP (ProbeSet 11751329_s_at) / Fold change (Aza/veh), VPS36 (ProbeSet 11739960_a_at) / Fold change (ACY-1035/veh), VPS36 (ProbeSet 11739960_a_at) / RFU SYPL1 (11715823_x_at) / Fold change /veh SYPL1 (11715823_x_at) / RFU IGFBP7 (11715501_s_at) / Fold change /veh IGFBP7 (11715501_s_at) / RFU REEP3 (11722064_at) / Fold change /veh REEP3 (11722064_at) / RFU IGLL1 (11728026_x_at) / Fold change /veh IGLL1 (11728026_x_at): dose or concentration left out as unconfirmed
Details: ProbeSet 11753623_s_at; LIST D

SMILES: Nc1ncn([C@@H]2O[C@H](CO)[C@@H](O)[C@H]2O)c(=O)n1 [azacitidine]
- Fold change vs veh, LOC101060439 /// RAP1B: 0.77
